Test results taken from US20220125051A1, “PRE-HARVEST DESICCATION METHOD” (SYNGENTA CROP PROTECTION AG, priority 2019, published 2022).
Where two headings read alike, the source gives them in different places.

Tests used:
Experiment in all cases: Post-emergence efficacy, Method A
Format in all cases: in vivo
[1] = system: Chenopodium album (CHEAL); settings: Chenopodium album, post-emergence, 312 h, evaluated after 13 days
Summary of the method: (§1)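 Visual damage score, 0 (no damage) to 100 (total), taken 13 d after spraying. Pot-grown plants at 14 d post-sowing received an aqueous spray from a 50 g/l acetone/IF50 solution diluted in 0.25% or 1% Empicol ESC70 + 1% ammonium sulphate; glasshouse 24/16 °C, 14 h light, 65% RH, watered twice daily.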

[2] = system: Digitaria sanguinalis (DIGSA); settings: Digitaria sanguinalis, post-emergence, 312 h, evaluated after 13 days
Summary of the method: as §1

Setaria faberi (SETFA) = settings: Setaria faberi, post-emergence, 312 h, evaluated after 13 days
Summary of the method: as §1

[3] = system: Ipomoea hederacea (IPOHE); settings: Ipomoea hederacea, post-emergence, 312 h, evaluated after 13 days
Summary of the method: as §1

Lolium perenne (LOLPE) = settings: Lolium perenne, post-emergence, 312 h, evaluated after 13 days
Summary of the method: as §1

[4] = system: Echinochloa crus-galli (ECHCG); settings: Echinochloa crus-galli, post-emergence, 312 h, evaluated after 13 days
Summary of the method: as §1

[5] = system: Euphorbia heterophylla (EPHHL); settings: Euphorbia heterophylla, post-emergence, 312 h, evaluated after 13 days
Summary of the method: as §1

Eleusine indica (ELEIN) = settings: Eleusine indica, post-emergence, 312 h, evaluated after 13 days
Summary of the method: as §1

[6] = system: Amaranthus palmeri (AMAPA); settings: Amaranthus palmeri, post-emergence, 312 h, evaluated after 13 days
Summary of the method: as §1

[7] = Application rate 500 g/Ha, 100=total damage to plant, 0=no damage to plant, read-out: Control of weed species after post-emergence application, CHEAL
[8] = Application rate 500 g/Ha, 100=total damage to plant, 0=no damage to plant, read-out: Control of weed species after post-emergence application, DIGSA
[9] = Application rate 500 g/Ha, 100=total damage to plant, 0=no damage to plant, read-out: Control of weed species after post-emergence application, SETFA
[10] = Application rate 500 g/Ha, 100=total damage to plant, 0=no damage to plant, read-out: Control of weed species after post-emergence application, IPOHE
[11] = Application rate 500 g/Ha, 100=total damage to plant, 0=no damage to plant, read-out: Control of weed species after post-emergence application, LOLPE
[12] = Application rate 500 g/Ha, 100=total damage to plant, 0=no damage to plant, read-out: Control of weed species after post-emergence application, ECHCG
[13] = Application rate 500 g/Ha, 100=total damage to plant, 0=no damage to plant, read-out: Control of weed species after post-emergence application, EPHHL
[14] = Application rate 500 g/Ha, 100=total damage to plant, 0=no damage to plant, read-out: Control of weed species after post-emergence application, ELEIN
[15] = Application rate 500 g/Ha, 100=total damage to plant, 0=no damage to plant, read-out: Control of weed species after post-emergence application, AMAPA
[16] = Application Rate 500 g/Ha, Method A, read-out: Control of weed species after post-emergence application, CHEAL (100=total damage to plant; 0=no damage to plant)
[17] = Application Rate 500 g/Ha, Method A, read-out: Control of weed species after post-emergence application, DIGSA (100=total damage to plant; 0=no damage to plant)
[18] = Application Rate 500 g/Ha, Method A, read-out: Control of weed species after post-emergence application, SETFA (100=total damage to plant; 0=no damage to plant)
[19] = Application Rate 500 g/Ha, Method A, read-out: Control of weed species after post-emergence application, IPOHE (100=total damage to plant; 0=no damage to plant)
[20] = Application Rate 500 g/Ha, Method A, read-out: Control of weed species after post-emergence application, LOLPE (100=total damage to plant; 0=no damage to plant)
[21] = Application Rate 500 g/Ha, Method A, read-out: Control of weed species after post-emergence application, ECHCG (100=total damage to plant; 0=no damage to plant)
[22] = Application Rate 500 g/Ha, Method A, read-out: Control of weed species after post-emergence application, EPHHL (100=total damage to plant; 0=no damage to plant)
[23] = Application Rate 500 g/Ha, Method A, read-out: Control of weed species after post-emergence application, ELEIN (100=total damage to plant; 0=no damage to plant)
[24] = Application Rate 500 g/Ha, Method A, read-out: Control of weed species after post-emergence application, AMAPA (100=total damage to plant; 0=no damage to plant)

Row | Compound | pest or weed control at 500 g/ha [1, 7] [%] | pest or weed control at 500 g/ha [2, 8] [%] | pest or weed control at 500 g/ha (Setaria faberi (SETFA); [9]) [%] | pest or weed control at 500 g/ha [3, 10] [%] | pest or weed control at 500 g/ha (Lolium perenne (LOLPE); [11]) [%] | pest or weed control at 500 g/ha [4, 12] [%] | pest or weed control at 500 g/ha [5, 13] [%] | pest or weed control at 500 g/ha (Eleusine indica (ELEIN); [14]) [%] | pest or weed control at 500 g/ha [6, 15] [%] | pest or weed control at 500 g/ha [1, 16] [%] | pest or weed control at 500 g/ha [2, 17] [%] | pest or weed control at 500 g/ha (Setaria faberi (SETFA); [18]) [%] | pest or weed control at 500 g/ha [3, 19] [%] | pest or weed control at 500 g/ha (Lolium perenne (LOLPE); [20]) [%] | pest or weed control at 500 g/ha [4, 21] [%] | pest or weed control at 500 g/ha [5, 22] [%] | pest or weed control at 500 g/ha (Eleusine indica (ELEIN); [23]) [%] | pest or weed control at 500 g/ha [6, 24] [%]
1 | CC(C)OC(=O)CC[n+]1ccc(-c2ncccn2)cn1 [Compound A81, isopropyl 3-(4-pyrimidin-2-ylpyridazin-1-ium-1-yl)propanoate 2,2,2-trifluoroacetate] | 90 | 100 | 90 | 40 | 40 | 90 | 100 | 80 | 100 | – | – | – | – | – | – | – | – | –
2 | COc1cc(OC)nc(-c2cc[n+](CCC(=O)[O-])nc2)n1 [Compound A76] | 20 | 20 | 40 | 20 | 30 | 30 | 30 | 30 | 30 | – | – | – | – | – | – | – | – | –
3 | N[C@@H](CC[n+]1ccc(-c2ncccn2)cn1)C(=O)O [Compound A201, [(1S)-1-carboxy-3-(4-pyrimidin-2-ylpyridazin-1-ium-1-yl)propyl]ammonium 2,2,2-trifluoroacetate] | – | – | – | – | – | – | – | – | – | 100 | 80 | 80 | 40 | 30 | 70 | 90 | 100 | 100
4 | Cc1cncc(-c2cc[n+](CCS(=O)(=O)[O-])nc2)n1 [Compound A83] | 80 | 100 | 90 | 40 | 70 | 50 | 90 | 100 | 90 | – | – | – | – | – | – | – | – | –
5 | CC(CC(=O)O)[n+]1ccc(-c2ccncn2)cn1 (stereo not drawn) [Compound A172] | – | – | – | – | – | – | – | – | – | 60 | 80 | 50 | 40 | 20 | 50 | 50 | 70 | 30
6 | CC(CC(=O)O)[n+]1ccc(-c2ncccn2)cn1 (stereo not drawn) [Compound A40, 3-(4-pyrimidin-2-ylpyridazin-1-ium-1-yl)butanoic acid 2,2,2-trifluoroacetate] | 70 | 90 | 100 | 100 | 90 | 90 | 90 | 90 | 90 | – | – | – | – | – | – | – | – | –
7 | Cc1c[n+](CCC(=O)O)ncc1-c1ncccn1 [Compound A153] | – | – | – | – | – | – | – | – | – | 60 | 20 | 20 | 20 | 0 | 40 | 40 | 20 | 90
8 | O=C([O-])CC[n+]1ccc(-c2ncccc2F)cn1 [Compound A67] | 50 | 60 | 70 | 20 | 40 | 80 | 80 | 70 | 60 | – | – | – | – | – | – | – | – | –
9 | COC(=O)C[n+]1ccc(-c2ncccn2)cn1 [Compound A2, methyl 2-(4-pyrimidin-2-ylpyridazin-1-ium-1-yl)acetate bromide] | 20 | 40 | 80 | 10 | 0 | 50 | 90 | 30 | 60 | – | – | – | – | – | – | – | – | –
10 | O=S(=O)([O-])CC[n+]1ccc(-c2ncc(C3CC3)cn2)cn1 [Compound A34] | 70 | 60 | 70 | 70 | 60 | 30 | 70 | 90 | 100 | – | – | – | – | – | – | – | – | –
11 | O=C(O)C(O)C[n+]1ccc(-c2ccncn2)cn1 (stereo not drawn) [Compound A190] | – | – | – | – | – | – | – | – | – | 80 | 60 | 40 | 70 | 40 | 60 | 80 | 70 | 100
12 | Cc1cncc(-c2cc[n+](CCC(=O)O)nc2)n1 [Compound A85] | 90 | 90 | 90 | 30 | 70 | 70 | 100 | 90 | 90 | – | – | – | – | – | – | – | – | –
13 | N[C@H](CC[n+]1ccc(-c2ccncn2)cn1)C(=O)O [Compound A235] | – | – | – | – | – | – | – | – | – | 40 | 40 | 30 | 20 | 0 | 30 | 20 | 10 | 10
14 | O=S(=O)([O-])CC[n+]1ccc(-c2ccnc(C(F)(F)F)n2)cn1 [Compound A108] | 80 | 50 | 60 | 70 | 40 | 40 | 80 | 60 | 40 | – | – | – | – | – | – | – | – | –
15 | O=C(O)CC[n+]1ccc(-c2ccnc(O)n2)cn1 [Compound A86] | 40 | 30 | 40 | 40 | 10 | 20 | 50 | 10 | 30 | – | – | – | – | – | – | – | – | –
